Test system: participants with schizophrenia or related psychotic disorder
Assay: Scale for the Assessment of Negative Symptoms (SANS), double-blind placebo-controlled study of CBD as adjunctive therapy
Type: in vivo, human
Settings: CBD vs placebo
Procedure: Example 1 below describes the use of a highly purified cannabis extract comprising cannabidiol (CBD) in a human clinical trial. Example 1 describes data produced in a double-blind, randomised, placebo-controlled, parallel group study of highly purified CBD as adjunctive therapy in first line treatment of schizophrenia or related psychotic disorder.
An eight-week, multi-centre, double-blind, randomised, placebo-controlled, parallel group study was conducted with the aim to determine the efficacy, safety and tolerability of highly purified CBD as adjunctive therapy in first line treatment of schizophrenia or related psychotic disorder.
This study evaluated the efficacy of highly purified CBD compared with placebo on the participant's PANSS Total score, ‘P’, ‘N’, ‘G’, SANS and BACS scores.
Changes from baseline in PANSS scores (Total, ‘P’, ‘N’ and ‘G’), SANS and BACS were recorded at the start of the study (baseline) and at the end of treatment (after 6 weeks treatment with CBD or placebo).
For inclusion in the study participants were required to be male or female aged 18 to 65 years, diagnosed with schizophrenia or a related psychotic disorder (such as schizoaffective or schizophreniform disorder) as defined by the Diagnostic and Statistical Manual of Mental Disorders Version 4. Participants must have been treated for a minimum of four-weeks and be on a stable dose of their current antipsychotic medication. […] A PANSS score in excess of 60 infers that the patient has symptoms related to schizophrenia or related disorders.
The participants were randomised to one of two treatment groups which each consisted of 39 participants. Treatment was administered as either 5 ml CBD (100 mg/ml) oral solution to be taken twice daily or 5 ml matched placebo oral solution to be taken twice daily.
Scale for the Assessment of Negative Symptoms (SANS)
SANS assesses five symptom complexes to obtain clinical ratings of negative symptoms in participants with schizophrenia or related psychotic disorder. They are: affective blunting; alogia (impoverished thinking); avolition/apathy; anhedonia/asociality; and disturbance of attention.
Assessments are conducted on a six-point scale (0=not at all to 5=severe). This scale was measured at each assessment visit (Visit 1-4)

[1] = patients on amisulpride, P = 0.8772

SMILES: C=C(C)[C@@H]1CCC(C)=C[C@H]1c1c(O)cc(CCCCC)cc1O [CBD, Cannabidiol]
- Change in baseline scores, SANS question 19: Sexual interest and activity: difference (all patients, P = 0.0364): (−0.4)
- Change in baseline scores, SANS sub-scale 4 (anhedonia/asociality): difference (all patients, P = 0.0605): (−1.2)
- Change in baseline scores, SANS question 24: Inattentiveness during mental status testing: difference (all patients, P = 0.0610): (−0.3)
- Change in baseline scores, SANS sub-scale 5 (disturbance of attention): difference (all patients, P = 0.0660): (−0.7)
- Change in baseline scores, SANS question 25: Global rating of attention: difference (all patients, P = 0.0773): (−0.2)
- Change in baseline scores, SANS question 20: Ability to feel closeness and intimacy: difference (all patients, P = 0.0918): (−1.1)
- Change in baseline scores, SANS total score: difference (all patients, P = 0.1168): (−3.5)
- Change in baseline scores, SANS question 18: Recreational interests and activity: difference (all patients, P = 0.1535): (−0.3)
- Change in baseline scores, SANS question 22: Global rating of anhedonia: difference (all patients, P = 0.1787): (−0.2)
- Change in baseline scores, SANS question 23: Social inattentiveness: difference (all patients, P = 0.2445): (−0.2)
- Change in baseline scores, SANS question 21: Relationships with friends and peers: difference (all patients, P = 0.8984): (0.0)
- Change in baseline scores, SANS score: difference (patients on amisulpride, P = 0.0687): (16.6)
- Change in baseline scores, SANS question 25: Global rating of attention: difference (patients on amisulpride, P = 0.0756): (1.0)
- Change in baseline scores, SANS question 19: Sexual interest and activity: difference (patients on amisulpride, P = 0.1971): (−0.8)
- Change in baseline scores, SANS question 18: Recreational interests and activity: difference (patients on amisulpride, P = 0.3833): (1.0)
- Change in baseline scores, SANS sub-scale 5 (disturbance of attention): difference (patients on amisulpride, P = 0.4023): (1.3)
- Change in baseline scores, SANS question 23: Social inattentiveness: difference (patients on amisulpride, P = 0.4206): (0.5)
- Change in baseline scores, SANS sub-scale 4 (anhedonia/asociality): difference (patients on amisulpride, P = 0.4357): (1.4)
- Change in baseline scores, SANS question 21: Relationships with friends and peers: difference (patients on amisulpride, P = 0.5671): (0.5)
- Change in baseline scores, SANS question 24: Inattentiveness during mental status testing: difference (patients on amisulpride, P = 0.8060): (−0.2)
- Change in baseline scores, SANS question 15: Impersistence at work or school: difference (patients on amisulpride, P = 0.8729): (0.0)
- Change in baseline scores, SANS question 20: Ability to feel closeness and intimacy: difference [1]: (0.1)
- Change in baseline scores, SANS question 22: Global rating of anhedonia: difference [1]: (0.1)
- Change in baseline scores, SANS question 25: Global rating of attention: difference (patients on aripiprazole, P = 0.0412): (−0.4)
- Change in baseline scores, SANS sub-scale 5 (disturbance of attention): difference (patients on aripiprazole, P = 0.1133): (−1.0)
- Change in baseline scores, SANS question 24: Inattentiveness during mental status testing: difference (patients on aripiprazole, P = 0.1740): (−0.4)
- Change in baseline scores, SANS question 15: Impersistence at work or school: difference (patients on aripiprazole, P = 0.1966): (−0.5)
- Change in baseline scores, SANS question 18: Recreational interests and activity: difference (patients on aripiprazole, P = 0.2979): (−0.3)
- Change in baseline scores, SANS question 23: Social inattentiveness: difference (patients on aripiprazole, P = 0.3546): (−0.2)
- Change in baseline scores, SANS question 19: Sexual interest and activity: difference (patients on aripiprazole, P = 0.4231): (−0.3)
- Change in baseline scores, SANS sub-scale 4 (anhedonia/asociality): difference (patients on aripiprazole, P = 0.7086): (−0.5)
- Change in baseline scores, SANS score: difference (patients on aripiprazole, P = 0.7642): (−1.4)
- Change in baseline scores, SANS question 21: Relationships with friends and peers: difference (patients on aripiprazole, P = 0.8346): (−0.1)
- Change in baseline scores, SANS question 20: Ability to feel closeness and intimacy: difference (patients on aripiprazole, P = 0.8965): (0.0)
- Change in baseline scores, SANS question 22: Global rating of anhedonia: difference (patients on aripiprazole, P = 0.9259): (0.0)
- Change in baseline scores, SANS score: difference (patients on olanzapine, P = 0.0050): (−14.3)
- Change in baseline scores, SANS question 20: Ability to feel closeness and intimacy: difference (patients on olanzapine, P = 0.0069): (−0.9)
- Change in baseline scores, SANS sub-scale 4 (anhedonia/asociality): difference (patients on olanzapine, P = 0.0071): (−3.7)
- Change in baseline scores, SANS question 15: Impersistence at work or school: difference (patients on olanzapine, P = 0.0242): (−0.9)
- Change in baseline scores, SANS question 22: Global rating of anhedonia: difference (patients on olanzapine, P = 0.0475): (−0.6)
- Change in baseline scores, SANS question 18: Recreational interests and activity: difference (patients on olanzapine, P = 0.0689): (−0.8)
- Change in baseline scores, SANS question 19: Sexual interest and activity: difference (patients on olanzapine, P = 0.0794): (−0.9)
- Change in baseline scores, SANS question 25: Global rating of attention: difference (patients on olanzapine, P = 0.1064): (−0.6)
- Change in baseline scores, SANS sub-scale 5 (disturbance of attention): difference (patients on olanzapine, P = 0.3556): (−1.0)
- Change in baseline scores, SANS question 21: Relationships with friends and peers: difference (patients on olanzapine, P = 0.4829): (−0.2)
- Change in baseline scores, SANS question 24: Inattentiveness during mental status testing: difference (patients on olanzapine, P = 0.5922): (−0.2)
- Change in baseline scores, SANS question 23: Social inattentiveness: difference (patients on olanzapine, P = 0.6757): (−0.2)
- Change in baseline scores, SANS question 24: Inattentiveness during mental status testing: difference (patients on other antipsychotics, P = 0.0654): (−1.6)
- Change in baseline scores, SANS question 25: Global rating of attention: difference (patients on other antipsychotics, P = 0.1763): (0.8)
- Change in baseline scores, SANS question 20: Ability to feel closeness and intimacy: difference (patients on other antipsychotics, P = 0.2601): (−0.4)
- Change in baseline scores, SANS question 15: Impersistence at work or school: difference (patients on other antipsychotics, P = 0.2746): (−10.6)
- Change in baseline scores, SANS score: difference (patients on other antipsychotics, P = 0.3359): (−8.3)
- Change in baseline scores, SANS sub-scale 5 (disturbance of attention): difference (patients on other antipsychotics, P = 0.4192): (−1.5)
- Change in baseline scores, SANS question 23: Social inattentiveness: difference (patients on other antipsychotics, P = 0.4246): (−0.5)
- Change in baseline scores, SANS sub-scale 4 (anhedonia/asociality): difference (patients on other antipsychotics, P = 0.5465): (−0.8)
- Change in baseline scores, SANS question 21: Relationships with friends and peers: difference (patients on other antipsychotics, P = 0.6373): (−0.2)
- Change in baseline scores, SANS question 22: Global rating of anhedonia: difference (patients on other antipsychotics, P = 0.6969): (−0.2)
- Change in baseline scores, SANS question 18: Recreational interests and activity: difference (patients on other antipsychotics, P = 0.8182): (−0.1)
- Change in baseline scores, SANS question 19: Sexual interest and activity: difference (patients on other antipsychotics, P = 0.9656): (0.0)
- Change in baseline scores, SANS sub-scale 4 (anhedonia/asociality): difference (patients on quetiapine, P = 0.0017): (−4.8)
- Change in baseline scores, SANS question 21: Relationships with friends and peers: difference (patients on quetiapine, P = 0.0044): (−0.7)
- Change in baseline scores, SANS question 18: Recreational interests and activity: difference (patients on quetiapine, P = 0.0233): (−1.3)
- Change in baseline scores, SANS question 19: Sexual interest and activity: difference (patients on quetiapine, P = 0.0501): (−1.4)
- Change in baseline scores, SANS question 23: Social inattentiveness: difference (patients on quetiapine, P = 0.0862): (−0.5)
- Change in baseline scores, SANS question 22: Global rating of anhedonia: difference (patients on quetiapine, P = 0.1043): (−1.1)
- Change in baseline scores, SANS question 20: Ability to feel closeness and intimacy: difference (patients on quetiapine, P = 0.1330): (−0.4)
- Change in baseline scores, SANS question 25: Global rating of attention: difference (patients on quetiapine, P = 0.2697): (−0.4)
- Change in baseline scores, SANS sub-scale 5 (disturbance of attention): difference (patients on quetiapine, P = 0.2701): (−1.1)
- Change in baseline scores, SANS score: difference (patients on quetiapine, P = 0.3150): (−5.4)
- Change in baseline scores, SANS question 24: Inattentiveness during mental status testing: difference (patients on quetiapine, P = 0.4421): (−0.6)
- Change in baseline scores, SANS question 15: Impersistence at work or school: difference (patients on quetiapine, P = 0.6640): (5.1)
- Change in baseline scores, SANS question 21: Relationships with friends and peers: difference (patients on risperidone, P = 0.0791): (0.5)
- Change in baseline scores, SANS sub-scale 4 (anhedonia/asociality): difference (patients on risperidone, P = 0.2800): (1.2)
- Change in baseline scores, SANS score: difference (patients on risperidone, P = 0.2955): (3.1)
- Change in baseline scores, SANS sub-scale 5 (disturbance of attention): difference (patients on risperidone, P = 0.3302): (0.7)
- Change in baseline scores, SANS question 25: Global rating of attention: difference (patients on risperidone, P = 0.3389): (0.2)
- Change in baseline scores, SANS question 24: Inattentiveness during mental status testing: difference (patients on risperidone, P = 0.4231): (0.3)
- Change in baseline scores, SANS question 18: Recreational interests and activity: difference (patients on risperidone, P = 0.4560): (−0.3)
- Change in baseline scores, SANS question 23: Social inattentiveness: difference (patients on risperidone, P = 0.5207): (0.2)
- Change in baseline scores, SANS question 15: Impersistence at work or school: difference (patients on risperidone, P = 0.6285): (0.1)
- Change in baseline scores, SANS question 19: Sexual interest and activity: difference (patients on risperidone, P = 0.6889): (0.1)
- Change in baseline scores, SANS question 20: Ability to feel closeness and intimacy: difference (patients on risperidone, P = 0.8648): (0.0)
- Change in baseline scores, SANS question 22: Global rating of anhedonia: difference (patients on risperidone, P = 0.9940): (0.0)

Reference: US20210059959A1, “USE OF CANNABINOIDS IN THE TREATMENT OF MENTAL DISORDERS” (GW Pharma Limited, priority 2015, published 2021)
